Drawing on the NIST ThermoML archive (doi:10.1021/je030163d), this text covers viscosity and mass density for 5 molecules.

One may read the viscosity as the internal friction of a fluid under shear. For orientation: mass density means mass per unit of volume.

Numbers after ± are expanded uncertainties.

The nature of data set [1]: xn = mol fraction of the nth substance listed. Conditions: 101.3 kPa, Liquid, x1 = 1; for viscosity: Capillary tube (Ostwald / Ubbelohde) method; for mass density: Pycnometric method.
The conditions of data set [2]: 101.3 kPa, Liquid; for viscosity: Capillary tube (Ostwald / Ubbelohde) method; for mass density: Pycnometric method.

Turning to `CN(C)C=O` [dimethylformamide] + CC(=O)c1ccccc1, the viscosity in data set [1] (298.15 K) was 0.803 ± 0.006 mPa·s; in data set [1] (303.15 K), 0.756 ± 0.006 mPa·s; in data set [1] (308.15 K), 0.71 ± 0.005 mPa·s; in data set [1] (313.15 K), 0.673 ± 0.005 mPa·s. Moreover, the mass density in data set [1] (298.15 K) stood at 944.5 ± 0.3 kg/m3; in data set [1] (303.15 K), 939.8 ± 0.3 kg/m3; in data set [1] (308.15 K), 935.1 ± 0.3 kg/m3; in data set [1] (313.15 K), 930.2 ± 0.4 kg/m3.
`CN(C)C=O` [dimethylformamide]: the viscosity in data set [2] (298.15 K) was determined as 0.803 ± 0.006 mPa·s; in data set [2] (303.15 K), 0.756 ± 0.006 mPa·s; in data set [2] (308.15 K) it was 0.71 ± 0.005 mPa·s; in data set [2] (313.15 K), 0.673 ± 0.005 mPa·s. The mass density in data set [2] (298.15 K) was determined as 944.5 ± 0.3 kg/m3; in data set [2] (303.15 K), 939.8 ± 0.3 kg/m3; in data set [2] (308.15 K), 935.1 ± 0.3 kg/m3; in data set [2] (313.15 K), 930.2 ± 0.4 kg/m3.
Consider `OCc1ccccc1` [benzenemethanol], for which the viscosity in data set [2] (298.15 K) amounted to 5.16 ± 0.031 mPa·s; in data set [2] (303.15 K), 4.67 ± 0.028 mPa·s; in data set [2] (308.15 K), 4.004 ± 0.024 mPa·s; in data set [2] (313.15 K), 3.52 ± 0.021 mPa·s. The mass density in data set [2] (298.15 K) was 1041.3 ± 0.4 kg/m3; in data set [2] (303.15 K), 1037.5 ± 0.4 kg/m3; in data set [2] (308.15 K) it was 1033.7 ± 0.4 kg/m3; in data set [2] (313.15 K) it was 1029.4 ± 0.4 kg/m3.
Turning to `CN(C)C=O` [dimethylformamide] + OCc1ccccc1, the viscosity in data set [1] (298.15 K) is on record as 0.803 ± 0.006 mPa·s; in data set [1] (303.15 K), 0.756 ± 0.006 mPa·s; in data set [1] (308.15 K), 0.71 ± 0.005 mPa·s; in data set [1] (313.15 K) it was 0.673 ± 0.005 mPa·s. Moreover, the mass density in data set [1] (298.15 K) stood at 944.5 ± 0.3 kg/m3; in data set [1] (303.15 K), 939.8 ± 0.3 kg/m3; in data set [1] (308.15 K), 935.1 ± 0.3 kg/m3; in data set [1] (313.15 K), 930.2 ± 0.4 kg/m3.
With `CC(=O)c1ccccc1` [acetophenone], the viscosity in data set [2] (298.15 K) worked out at 1.68 ± 0.013 mPa·s; in data set [2] (303.15 K), 1.54 ± 0.012 mPa·s; in data set [2] (308.15 K), 1.41 ± 0.011 mPa·s; in data set [2] (313.15 K) it was 1.31 ± 0.01 mPa·s. Also, the mass density is listed as 1024.1 ± 0.6 kg/m3 in data set [2] (298.15 K), 1019.9 ± 0.6 kg/m3 in data set [2] (303.15 K), 1015.7 ± 0.6 kg/m3 in data set [2] (308.15 K) and 1011.2 ± 0.6 kg/m3 in data set [2] (313.15 K).
